Data on nine molecules can be found in paper PMC9855884, “Glycosylated Lipopeptides—Synthesis and Evaluation of Antimicrobial Activity and Cytotoxicity” (Biomolecules, 2023).

Values after ≈ are worked out from the molar mass of the structure shown. Where a SMILES comes first, the peptide text is derived from it. The star is where a group is joined. βGlcNAc = CC(=O)N[C@@H]1[C@@H](O)[C@H](O)[C@@H](CO)O[C@H]1*; Stearoyl = CCCCCCCCCCCCCCCCCC(=O)*; Palmitoyl = CCCCCCCCCCCCCCCC(=O)*; Myristoyl = CCCCCCCCCCCCCC(=O)*

One series relates to C. glabrata ATCC 15126. It counts as cell-based, Candida glabrata. The conditions noted are these: ATCC 15126, 24 h. As to the method:
(§1) The Acinetobacter baumannii ATCC BAA-1605, Enterococcus faecium ATCC 700221, Klebsiella aerogenes ATCC 13048, Klebsiella pneumoniae ATCC 700603, Pseudomonas aeruginosa ATCC 9027, Staphylococcus aureus ATCC 33591, Candida glabrata ATCC 15126, strains were acquired from the American Type Culture Collection (ATCC). All the strains were stored at −80 °C in Roti-Store cryo vials and were transferred into fresh Mueller–Hinton broth (MHB, Becton Dickinson, Warsaw, Poland) for bacteria or RPMI-1640 (Sigma-Aldrich, Steinheim, Germany) for fungi before the tests and incubated for 24 h at 37 °C. Then, the cultures were seeded on the Mueller–Hinton agar (BioMaxima, Lublin, Poland) or Sabouraud dextrose agar (SDA, BioMaxima, Lublin, Poland) plates, respectively, and incubated as just mentioned. These agar cultures were used for further microbiological assays. Cell densities for all assays were adjusted spectrophotometrically (Multiskan GO Microplate Spectrophotometer, Thermo Fisher Scientific, Vantaa, Finland) at 600 and 530 nm for bacteria and fungi, respectively.
(§2) The MICs were determined using a broth microdilution method according to the Clinical and Laboratory Standard Institute guidelines. For this purpose, initial inoculums of bacteria (5 × 10^5 CFU/mL) in MHB and yeasts (2 × 10^3 CFU/mL) in RPMI-1640 with 2% D-glucose were exposed to the ranging concentration of lipopeptides (1–512 μg/mL) and incubated at 37 °C for 18 h and 24 h, respectively. The experiments were conducted on 96-well microtiter polystyrene plates (Kartell, Italy). The growth was assessed visually after incubation and the MIC was assumed as the lowest peptide concentration at which a noticeable growth of microorganisms was inhibited. All experiments were conducted in triplicate.

The test system of the next series is E. faecium ATCC 700221. The series is classed as cell-based, Enterococcus faecium. The conditions noted are these: ATCC 700221, 18 h. The procedure:
as §1, §2

The test system of series [1] is A. baumannii ATCC BAA 1605. The series is classed as cell-based, Acinetobacter baumannii. Particulars: ATCC BAA 1605, 18 h. As to the method: as §1, §2
Series [2] has as its system K. pneumoniae ATCC 700603. It counts as cell-based, Klebsiella pneumoniae. Particulars: ATCC 700603, 18 h. As to the method:
as §1, §2

The next series relates to S. aureus ATCC 33591. The series is classed as cell-based, Staphylococcus aureus. Particulars: ATCC 33591, 18 h. As to the method:
as §1, §2

Another series can be described thus: MTT assay, cytotoxicity. It counts as cell-based, human. Particulars: human, HaCaT keratinocytes, 24 h incubation at 37 °C, 0.5–500 μg/mL, six replicates per concentration, repeated at least twice. The procedure:
To evaluate the cytotoxicity of the test peptides (IC50), the classic MTT assay on 96-well plates was performed for human keratinocytes (HaCaT) which were acquired from the ATCC. The assay was based on colorimetric determination of the cell metabolic activity where the color intensity reflected the number of live cells that could be measured spectrophotometrically. The cell line was cultured in a Dulbecco’s modified Eagle Medium (Invitrogen) supplemented with 10% fetal bovine serum (v/v), 100 units/mL of penicillin, 100 μg/mL of streptomycin, and 2 mM L-glutamine and was kept at 37 °C in a humidified 5% CO2 incubator. Briefly, a day after plating of 500 cells per well, a series of concentrations (0.5–500 μg/mL) of the test compounds were applied. DMSO was added to the control cells at a final concentration of 1.0% (v/v), which was related to the maximum concentration of the solvent compounds used in the experiment. After 24 h of incubation at 37 °C (humidified 5% CO2 incubator) with the peptides, a medium containing 1 mg/mL of MTT was added to the wells up to a final concentration of 0.5 mg/mL. Subsequently, the plates were incubated at 37 °C for 4 h. Then, the medium was aspirated, and the formazan product was solubilized with DMSO. The background absorbance at 630 nm was subtracted from that at 570 nm for each well (Epoch, BioTek Instruments, Winooski, VT, USA). Six replicates were conducted for each concentration. All experiments were repeated at least twice and the resulting IC50 values were calculated with a GraFit 7 software (v. 7.0, Erithacus, Berkley, CA, USA).
The selectivity indexes were calculated for all the strains as IC50/MIC. According to IC50, in most cases, glycosylation caused only a slight decrease in toxicity. However, in contrast with SI calculated for HC50, the differences between USCLs and gUSCLs are not so distinct. […] Moreover, toxicity of USCLs and gUSCLs is high and exceeds their antimicrobial activity. The lipopetides were not selective against Gram-negative strains (K. pneumoniae, A. baumannii, P. aeruginosa, K. aerogenes) over human cells. A few USCLs were selective (SI > 1) against E. faecium and S. aureus with SI up to 1.87; and some gUSCLs were selective against E. faecium but not against S. aureus, with SI between 0.63 and 1.73. […] In this case, SI of gUSCLs was noticeably […] than that of corresponding parent USCLs (2.07, 1.99, 2.67 vs. 2.53, 2.36, 3.46, respectively). Selectivity indexes were plotted against adjusted retention time (Figures S15–S21). A moderate linear correlation was found in USCLs and K. pneumoniae, C. glabrata, and gUSCLs and K. pneumoniae, K. aerogenes (R^2 between 0.6064 and 0.6481). A relatively high linear correlation was obtained for USCLs and K. aerogenes (R^2 of 0.8214) and also for gUSCLs and C. glabrata (R^2 of 0.9223).

`CCCCCCCCCCCCCC(=O)N[C@@H](CO[C@@H]1O[C@H](CO)[C@@H](O)[C@H](O)[C@H]1NC(C)=O)C(=O)N[C@@H](CCCNC(=N)N)C(=O)N[C@@H](CCCNC(=N)N)C(N)=O` [Peptide 10, C14-S(GlcNAc)RR-NH2] (Myristoyl-Ser(βGlcNAc)-Arg-Arg-NH2): the MIC with C. glabrata ATCC 15126 is 256 µg/mL (≈ 308 µM); with E. faecium ATCC 700221 it was 32 µg/mL (≈ 38.6 µM); in series [1], 128 µg/mL (≈ 154 µM); in series [2] it was over 512 µg/mL; with S. aureus ATCC 33591 it was 64 µg/mL (≈ 77.1 µM). The molecule also displayed an IC50 at 24 h in the series “MTT assay, cytotoxicity” of 32.1 ± 6.26 µg/mL (≈ 38.7 µM).
Turning to `CCCCCCCCCCCCCC(=O)N[C@@H](CCCNC(=N)N)C(=O)N[C@@H](CO[C@@H]1O[C@H](CO)[C@@H](O)[C@H](O)[C@H]1NC(C)=O)C(=O)N[C@@H](CCCNC(=N)N)C(N)=O` [Peptide 11, C14-RS(GlcNAc)R-NH2] (Myristoyl-Arg-Ser(βGlcNAc)-Arg-NH2), the MIC in the series on C. glabrata ATCC 15126 is 128 µg/mL (≈ 154 µM); against E. faecium ATCC 700221, 32 µg/mL (≈ 38.6 µM); in series [1], 64 µg/mL (≈ 77.1 µM); in series [2], over 512 µg/mL; in the series with S. aureus ATCC 33591 it was 64 µg/mL (≈ 77.1 µM). In “MTT assay, cytotoxicity”, this molecule displayed an IC50 at 24 h of 25.2 ± 3.47 µg/mL (≈ 30.3 µM).
`CCCCCCCCCCCCCC(=O)N[C@@H](CCCNC(=N)N)C(=O)N[C@@H](CCCNC(=N)N)C(=O)N[C@@H](CO[C@@H]1O[C@H](CO)[C@@H](O)[C@H](O)[C@H]1NC(C)=O)C(N)=O` [Peptide 12, C14-RRS(GlcNAc)-NH2] (Myristoyl-Arg-Arg-Ser(βGlcNAc)-NH2): the minimal inhibitory concentration (MIC) against C. glabrata ATCC 15126 is 128 µg/mL (≈ 154 µM); in the series on E. faecium ATCC 700221, 16 µg/mL (≈ 19.3 µM); in series [1] it was 64 µg/mL (≈ 77.1 µM); in series [2], over 512 µg/mL; in the series with S. aureus ATCC 33591 it was 32 µg/mL (≈ 38.6 µM). The molecule further gave an IC50 at 24 h in “MTT assay, cytotoxicity” of 20.5 ± 3.05 µg/mL (≈ 24.6 µM).
Take `CCCCCCCCCCCCCCCC(=O)N[C@@H](CO[C@@H]1O[C@H](CO)[C@@H](O)[C@H](O)[C@H]1NC(C)=O)C(=O)N[C@@H](CCCNC(=N)N)C(=O)N[C@@H](CCCNC(=N)N)C(N)=O` [Peptide 13, C16-S(GlcNAc)RR-NH2] (Palmitoyl-Ser(βGlcNAc)-Arg-Arg-NH2): the MIC against C. glabrata ATCC 15126 is on record as 32 µg/mL (≈ 37.3 µM); against E. faecium ATCC 700221, 16 µg/mL (≈ 18.6 µM); in series [1], 32 µg/mL (≈ 37.3 µM); in series [2], 256 µg/mL (≈ 298 µM); against S. aureus ATCC 33591, 16 µg/mL (≈ 18.6 µM). In addition, in “MTT assay, cytotoxicity”, the IC50 at 24 h came to 10.6 ± 2.04 µg/mL (≈ 12.4 µM).
Turning to `CCCCCCCCCCCCCCCC(=O)N[C@@H](CCCNC(=N)N)C(=O)N[C@@H](CO[C@@H]1O[C@H](CO)[C@@H](O)[C@H](O)[C@H]1NC(C)=O)C(=O)N[C@@H](CCCNC(=N)N)C(N)=O` [Peptide 14, C16-RS(GlcNAc)R-NH2] (Palmitoyl-Arg-Ser(βGlcNAc)-Arg-NH2), the MIC in the series with C. glabrata ATCC 15126 amounted to 16 µg/mL (≈ 18.6 µM); in the series with E. faecium ATCC 700221 it was 16 µg/mL (≈ 18.6 µM); in series [1] it was 32 µg/mL (≈ 37.3 µM); in series [2], 128 µg/mL (≈ 149 µM); in the series on S. aureus ATCC 33591, 16 µg/mL (≈ 18.6 µM). In “MTT assay, cytotoxicity”, this molecule came in with an IC50 at 24 h of 14.1 ± 3.48 µg/mL (≈ 16.4 µM).
As to `CCCCCCCCCCCCCCCC(=O)N[C@@H](CCCNC(=N)N)C(=O)N[C@@H](CCCNC(=N)N)C(=O)N[C@@H](CO[C@@H]1O[C@H](CO)[C@@H](O)[C@H](O)[C@H]1NC(C)=O)C(N)=O` [Peptide 15, C16-RRS(GlcNAc)-NH2] (Palmitoyl-Arg-Arg-Ser(βGlcNAc)-NH2), the MIC with C. glabrata ATCC 15126 is 16 µg/mL (≈ 18.6 µM); against E. faecium ATCC 700221, 8 µg/mL (≈ 9.32 µM); in series [1] it was 32 µg/mL (≈ 37.3 µM); in series [2], 256 µg/mL (≈ 298 µM); against S. aureus ATCC 33591 it was 16 µg/mL (≈ 18.6 µM). This molecule showed an IC50 at 24 h in the series “MTT assay, cytotoxicity” of 5.16 ± 1.32 µg/mL (≈ 6.01 µM).
Turning to `CCCCCCCCCCCCCCCCCC(=O)N[C@@H](CO[C@@H]1O[C@H](CO)[C@@H](O)[C@H](O)[C@H]1NC(C)=O)C(=O)N[C@@H](CCCNC(=N)N)C(=O)N[C@@H](CCCNC(=N)N)C(N)=O` [Peptide 16, C18-S(GlcNAc)RR-NH2] (Stearoyl-Ser(βGlcNAc)-Arg-Arg-NH2), the MIC was determined as 4 µg/mL (≈ 4.51 µM) against C. glabrata ATCC 15126; 16 µg/mL (≈ 18.1 µM) in the series with E. faecium ATCC 700221; 16 µg/mL (≈ 18.1 µM) in series [1]; 64 µg/mL (≈ 72.2 µM) in series [2]; 16 µg/mL (≈ 18.1 µM) in the series on S. aureus ATCC 33591. This molecule also came in with an IC50 at 24 h in “MTT assay, cytotoxicity” of 10.1 ± 0.66 µg/mL (≈ 11.4 µM).
On to `CCCCCCCCCCCCCCCCCC(=O)N[C@@H](CCCNC(=N)N)C(=O)N[C@@H](CO[C@@H]1O[C@H](CO)[C@@H](O)[C@H](O)[C@H]1NC(C)=O)C(=O)N[C@@H](CCCNC(=N)N)C(N)=O` [Peptide 17, C18-RS(GlcNAc)R-NH2] (Stearoyl-Arg-Ser(βGlcNAc)-Arg-NH2), for which the MIC in the series on C. glabrata ATCC 15126 is 4 µg/mL (≈ 4.51 µM); against E. faecium ATCC 700221, 8 µg/mL (≈ 9.03 µM); in series [1], 16 µg/mL (≈ 18.1 µM); in series [2], 16 µg/mL (≈ 18.1 µM); against S. aureus ATCC 33591, 16 µg/mL (≈ 18.1 µM). For the same molecule, in the series “MTT assay, cytotoxicity”, the IC50 at 24 h worked out at 9.45 ± 0.89 µg/mL (≈ 10.7 µM).
On to `CCCCCCCCCCCCCCCCCC(=O)N[C@@H](CCCNC(=N)N)C(=O)N[C@@H](CCCNC(=N)N)C(=O)N[C@@H](CO[C@@H]1O[C@H](CO)[C@@H](O)[C@H](O)[C@H]1NC(C)=O)C(N)=O` [Peptide 18, C18-RRS(GlcNAc)-NH2] (Stearoyl-Arg-Arg-Ser(βGlcNAc)-NH2), for which the MIC against C. glabrata ATCC 15126 is recorded as 4 µg/mL (≈ 4.51 µM); in the series on E. faecium ATCC 700221, 8 µg/mL (≈ 9.03 µM); in series [1], 32 µg/mL (≈ 36.1 µM); in series [2], 32 µg/mL (≈ 36.1 µM); in the series with S. aureus ATCC 33591, 16 µg/mL (≈ 18.1 µM). This molecule also had an IC50 at 24 h in the series “MTT assay, cytotoxicity” of 13.8 ± 1.71 µg/mL (≈ 15.6 µM).
